Source: patent US20130012519A1, “Biomarker Identifying the Reactivation of STAT3 After Src Inhibition” (BRISTOL-MYERS SQUIBB COMPANY, priority 2006, published 2013)
Entries after “also recorded” stand apart in the source; their conditions may differ. One block for each compound: values may come before it.

Experiments:
STAT3 [1] = experiment: Western blot / Bioplex phosphoprotein assay, STAT3 activation (pY705-STAT3) in cancer cell lines; details: for STAT3 inhibition on addition of JAK inhibitor to dasatinib: JAK inhibitor added to dasatinib; for effect of added inhibitor on STAT3 reactivation by dasatinib: Tu167 cells treated with dasatinib plus the inhibitor; for STAT3 inhibition / re-activation: Tu167 cells treated with one of three SFK inhibitors for 24 hours
wild-type BCR-ABL = details: read-out: IC50 against wild-type BCR-ABL; Weisberg et al. 2006; cited from earlier work
[2] = test system: imatinib-resistant BCR-ABL mutants; details: number of mutants out of those tested; Weisberg et al. 2006; cited from earlier work
c-Src = biological target: T1, c-Src (Homo sapiens, UniProt P12931); experiment: Western blot, c-Src inhibition in cancer cell lines; type: cell-based; details: Tu167 cells treated with one of three SFK inhibitors for 24 hours
T1 construct: endogenous in cells; host or cells: fifteen human cancer cell lines (HNSCC incl. Tu167, NSCLC, mesothelioma, squamous skin cancer)

STAT3 [3] = details: panel of NSCLC cell lines with mutant or wild-type EGFR; literature; cited from earlier work
[4] = test system: 25 human cytokines/chemokines; experiment: Cytokine profiling of cell media (25-plex bead kit), other cytokines; type: cell-based; details: 100 nM dasatinib; serum-free and complete medium; 6 and 24 h
IL-6 = experiment: Cytokine profiling of cell media (25-plex bead kit), IL-6; type: cell-based, human; details: 100 nM dasatinib; serum-free and complete medium; 6 and 24 h
MAPK [5] = details: HNSCC cells treated with dasatinib; Johnson et al. 2005; cited from earlier work
FAK = experiment: Western blot, FAK downstream of Src in cancer cell lines; type: cell-based, human
STAT5 = experiment: Western blot, STAT5 downstream of Src in cancer cell lines; type: cell-based, human
[6] = test system: head and neck squamous carcinoma and non-small cell lung cancer cell lines; details: cited from earlier work
AKT = experiment: Western blot, AKT downstream of Src in cancer cell lines; type: cell-based, human
IGF1R = biological target: T2, IGF1R (Homo sapiens, UniProt P08069); experiment: IGF1R activation in cells; type: cell-based; details: cells treated with dasatinib
T2 construct: endogenous in cells

IL-8 = experiment: Cytokine profiling of cell media (25-plex bead kit), IL-8; type: cell-based, human; details: 100 nM dasatinib; serum-free and complete medium; 6 and 24 h
MAPK [7] = experiment: Western blot, MAPK activation in HNSCC cells; details: Tu167 cells treated with EGF
[8] = Tu167 cells, 100 nM dasatinib for the indicated times
[9] = all fifteen human cancer cell lines, 100 nM dasatinib, 0-24 h

T1 sequence (P12931 whole entry): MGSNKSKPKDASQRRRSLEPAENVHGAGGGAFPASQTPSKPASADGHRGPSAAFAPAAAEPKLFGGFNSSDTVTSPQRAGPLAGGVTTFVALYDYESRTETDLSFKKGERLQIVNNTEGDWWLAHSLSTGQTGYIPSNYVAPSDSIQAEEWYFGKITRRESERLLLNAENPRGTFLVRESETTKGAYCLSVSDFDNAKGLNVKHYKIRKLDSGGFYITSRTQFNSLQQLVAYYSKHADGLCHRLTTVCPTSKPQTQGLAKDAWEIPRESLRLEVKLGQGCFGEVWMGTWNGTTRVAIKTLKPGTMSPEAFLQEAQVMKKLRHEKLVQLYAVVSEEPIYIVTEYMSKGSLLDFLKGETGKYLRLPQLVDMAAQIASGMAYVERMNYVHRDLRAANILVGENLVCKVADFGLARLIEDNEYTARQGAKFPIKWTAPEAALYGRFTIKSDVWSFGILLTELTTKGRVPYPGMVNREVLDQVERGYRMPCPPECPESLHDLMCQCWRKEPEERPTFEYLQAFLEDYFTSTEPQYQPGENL
T2 sequence (P08069 31-1367): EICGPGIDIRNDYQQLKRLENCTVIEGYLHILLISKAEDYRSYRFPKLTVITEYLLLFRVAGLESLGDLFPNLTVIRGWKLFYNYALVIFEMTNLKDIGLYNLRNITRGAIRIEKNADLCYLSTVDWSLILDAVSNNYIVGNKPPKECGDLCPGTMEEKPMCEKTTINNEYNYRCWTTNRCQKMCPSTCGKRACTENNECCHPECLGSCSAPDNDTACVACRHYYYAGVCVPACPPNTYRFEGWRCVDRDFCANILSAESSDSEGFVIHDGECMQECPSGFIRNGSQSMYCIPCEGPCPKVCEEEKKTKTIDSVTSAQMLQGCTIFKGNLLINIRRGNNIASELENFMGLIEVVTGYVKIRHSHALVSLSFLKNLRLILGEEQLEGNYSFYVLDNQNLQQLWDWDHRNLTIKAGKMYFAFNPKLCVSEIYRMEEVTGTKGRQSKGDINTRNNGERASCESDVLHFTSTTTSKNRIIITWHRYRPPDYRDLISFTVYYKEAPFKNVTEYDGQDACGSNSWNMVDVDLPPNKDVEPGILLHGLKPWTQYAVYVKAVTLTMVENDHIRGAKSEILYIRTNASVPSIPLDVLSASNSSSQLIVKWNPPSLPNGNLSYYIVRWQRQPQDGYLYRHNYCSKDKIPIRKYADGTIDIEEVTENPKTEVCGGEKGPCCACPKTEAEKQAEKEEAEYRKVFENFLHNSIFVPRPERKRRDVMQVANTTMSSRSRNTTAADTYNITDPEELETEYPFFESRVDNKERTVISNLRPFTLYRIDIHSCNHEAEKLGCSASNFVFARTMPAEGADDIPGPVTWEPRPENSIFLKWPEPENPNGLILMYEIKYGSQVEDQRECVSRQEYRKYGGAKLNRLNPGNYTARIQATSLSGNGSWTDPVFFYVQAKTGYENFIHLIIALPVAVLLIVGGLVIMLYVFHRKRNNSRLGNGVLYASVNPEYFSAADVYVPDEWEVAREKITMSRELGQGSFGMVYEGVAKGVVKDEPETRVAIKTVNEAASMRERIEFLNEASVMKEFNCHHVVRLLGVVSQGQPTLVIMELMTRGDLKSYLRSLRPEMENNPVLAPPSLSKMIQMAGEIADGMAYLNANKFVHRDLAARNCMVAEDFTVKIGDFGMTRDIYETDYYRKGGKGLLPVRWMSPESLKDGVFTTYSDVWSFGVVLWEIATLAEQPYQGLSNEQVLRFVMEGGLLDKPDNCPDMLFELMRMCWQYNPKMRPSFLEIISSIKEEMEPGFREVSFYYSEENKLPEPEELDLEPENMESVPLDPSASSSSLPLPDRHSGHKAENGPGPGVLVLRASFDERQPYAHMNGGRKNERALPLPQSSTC

Compound: N#C/C(=C/c1ccc(O)c(O)c1)C(=O)NCc1ccccc1 [AG490]
STAT3 inhibition on addition of JAK inhibitor to dasatinib (STAT3 [1]): sustained inhibition of STAT3

Compound: Cc1cn(-c2cc(NC(=O)c3ccc(C)c(Nc4nccc(-c5cccnc5)n4)c3)cc(C(F)(F)F)c2)cn1 [AMN107]
IC50 (wild-type BCR-ABL): […] | imatinib-resistant BCR-ABL mutants against which significantly active [2]: 32/33

Compound: COc1cccc(-c2cc(=O)c3ccccc3o2)c1N [PD98059]
effect of added inhibitor on STAT3 reactivation by dasatinib (STAT3 [1]): no effect on STAT3 reactivation

c-Src inhibition (c-Src): durable c-Src inhibition
Compound: Cc1ccc(-c2nn(C(C)(C)C)c3ncnc(N)c23)cc1 [PP1]
STAT3 inhibition / re-activation (STAT3 [1]; Western blot): not inhibited at 24 hours

c-Src inhibition (c-Src): durable c-Src inhibition
Compound: COc1cc(Nc2c(C#N)cnc3cc(OCCCN4CCN(C)CC4)c(OC)cc23)c(Cl)cc1Cl [SKI606]
STAT3 inhibition / re-activation (STAT3 [1]; Western blot): not inhibited at 24 hours

Compound: Cc1nc(Nc2ncc(C(=O)Nc3c(C)cccc3Cl)s2)cc(N2CCN(CCO)CC2)n1 [dasatinib, N-(2-chloro-6-methylphenyl)-2-[[6-[4-(2-hydroxyethyl)-1-piperazinyl]-2-methyl-4-pyrimidinyl]amino]-5-thiazolecarboxamide]
effect of SFK inhibition on STAT3 activation (STAT3 [3]): modest to absent | increase of any of 25 cytokines / growth factors assayed [4]: No cytokine or growth factor assayed was significantly increased | production of IL-1beta, IL-12p40, IL-15, TNF-alpha, interferon-alpha, inducible protein-10, MIG, RANTES, IL-10 [4]: unaffected | IL-6 production (IL-6): decreased | STAT3 activation (pSTAT3) (STAT3 [1]; 14 of 15 solid tumor cell lines (HNSCC, NSCLC, mesothelioma, squamous skin carcinoma), 100 nM dasatinib, 0-24 h, Western blot): intitally inhibited but levels of pSTAT3 (Y105) returned to or above baseline by 24 h; also recorded: initially inhibited but reactivated by 24 h | STAT3 inhibition / re-activation (STAT3 [1]; Western blot): not inhibited at 24 hours | STAT3 inhibition (STAT3 [1]; Tu167 cells, 100 nM dasatinib for the indicated times, Western blot): not durably inhibited | STAT3 activation in fresh cells by conditioned medium (STAT3 [1]; conditioned medium from Tu167 cells treated with dasatinib for 24 h transferred to fresh cells): did not observe any STAT3 activation | MAPK activation (MAPK [5]): transiently activated | FAK inhibition (FAK; [8]): durable inhibition | FAK inhibition (FAK; [9]): rapidly and durably inhibited | STATS inhibition (STAT5; [8]): durable inhibition | STATS inhibition (STAT5; [9]): rapidly and durably inhibited | effects in cancer cell lines [6]: cytotoxicity, cell cycle arrest and apoptosis | AKT inhibition (AKT; [8]): durable inhibition | AKT inhibition (AKT; [9]): rapidly and durably inhibited | IGF1R activation (IGF1R): nor did dasatinib affect IGF1R activation | IL-8 production (IL-8): decreased

Compound: C#Cc1cccc(Nc2ncnc3cc(OCCOC)c(OCCOC)cc23)c1 [erlotinib]
effect of added inhibitor on STAT3 reactivation by dasatinib (STAT3 [1]): did not affect the STAT3 reactivation

Compound: CC(C)(C)c1nc2c3cc[nH]c(=O)c3c3cc(F)ccc3c2[nH]1 [pyridone 6]
STAT3 inhibition on addition of JAK inhibitor to dasatinib (STAT3 [1]): sustained inhibition of STAT3

Compound: EGF: epidermal growth factor, used to stimulate cells (NSDSECPLSHDGYCLHDGVCMYIEALDKYACNCVVGYIGERCQYRDLKWWELR; UniProt P01133 971-1023, looked up)
STAT3 activation on stimulation (STAT3 [1]; Tu167 cells treated with EGF): slight increase in STAT3 activation | MAPK activation on stimulation (MAPK [7]): markedly activated

Compound: insulin-like growth factor
STAT3 activation on stimulation (STAT3 [1]; stimulation of cells with insulin-like growth factor): did not lead to significant activation of STAT3
